Literature values, collected in patent EP3373945B1, “AN ORAL DRUG FORMULATION COMPRISING SILYBIN” (ISTITUTO BIOCHIMICO ITALIANO GIOVANNI LORENZINI S.p.A., priority 2015, dated 2017).
Converted amounts (≈) assume the structure as drawn.

SMILES: COc1cc(C2Oc3cc([C@H]4Oc5cc(O)cc(O)c5C(=O)[C@@H]4O)ccc3OC2CO)ccc1O (stereo partly shown) [silybin]
- water solubility: 430 µg/mL (≈ 891 µM)
